Laboratory results taken from ChEMBL document CHEMBL4325874, “Design and synthesis of histamine H3/H4 receptor ligands with a cyclopropane scaffold” (Bioorg Med Chem Lett, 2018).

Columns and labels:
Histamine H4 receptor = Histamine H4 receptor (Homo sapiens, UniProt Q9H3N8); test: Displacement of [3H]histamine from human recombinant histamine H4 receptor expressed in CHO cell membranes after 30 mins by liquid scintillation analysis
Histamine H3 receptor = Histamine H3 receptor (Homo sapiens, UniProt Q9Y5N1); test: Displacement of [3H]Nalpha-methylhistamine from human recombinant histamine H3 receptor expressed in CHO cell membranes after 30 mins by liquid scintillation analysis
Sequence of Histamine H3 receptor (Q9Y5N1 whole entry): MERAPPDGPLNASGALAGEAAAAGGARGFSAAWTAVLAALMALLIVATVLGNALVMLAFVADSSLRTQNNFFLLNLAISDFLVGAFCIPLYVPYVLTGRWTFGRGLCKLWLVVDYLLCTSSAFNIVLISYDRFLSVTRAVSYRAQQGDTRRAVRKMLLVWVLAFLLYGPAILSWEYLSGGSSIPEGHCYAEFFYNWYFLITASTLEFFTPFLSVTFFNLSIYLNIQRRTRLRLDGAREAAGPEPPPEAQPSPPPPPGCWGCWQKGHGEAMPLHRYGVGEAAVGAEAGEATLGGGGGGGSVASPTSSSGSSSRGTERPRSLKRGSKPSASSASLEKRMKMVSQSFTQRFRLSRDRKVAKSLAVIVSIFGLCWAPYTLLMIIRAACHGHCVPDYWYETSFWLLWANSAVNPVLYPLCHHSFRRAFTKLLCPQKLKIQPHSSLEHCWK

Ki (Histamine H4 receptor) [nM] | Ki (Histamine H3 receptor) [nM] | Compound
> 1000 | > 1000 | Clc1ccc(CNC[C@@H]2C[C@H]2c2nc3cc(Cl)ccc3[nH]2)cc1
> 1000 | > 1000 | CN1CCN([C@@H]2C[C@@H]2CCNCc2ccc(Cl)cc2)CC1
> 1000 | > 1000 | Clc1ccc(CNC[C@H]2C[C@H]2N2CCNCC2)cc1

Continued, compound first:

Compound | Ki (Histamine H4 receptor) [nM] | Ki (Histamine H3 receptor) [nM]
Clc1ccc(CNCC[C@@H]2C[C@H]2c2nc3cc(Cl)ccc3[nH]2)cc1 | > 1000 | > 1000
CN1CCN([C@@H]2C[C@@H]2CNCc2ccc(Cl)cc2)CC1 | > 1000 | > 1000
Clc1ccc(CNC[C@@H]2C[C@@H]2c2cc3cc(Cl)ccc3[nH]2)cc1 | > 1000 | > 1000
Clc1ccc(CNCC[C@H]2C[C@H]2N2CCNCC2)cc1 | > 1000 | > 1000
c1ccc2[nH]c(C[C@@H]3C[C@H]3c3c[nH]cn3)nc2c1 | 295 | 186
Clc1ccc(CNCC[C@@H]2C[C@@H]2c2cc3cc(Cl)ccc3[nH]2)cc1 | > 1000 | > 1000
c1ccc2[nH]c(CNCC[C@@H]3C[C@H]3c3c[nH]cn3)nc2c1 | 166 | 52
